# Measured values as given in patent US20080095713A1, “Method of Tumour Imaging” (priority 2004, published 2008).
# Tests used:
# [1] = system: R3230AC rat mammary adenocarcinoma; test: In vivo ^13C-MR tumour imaging using hyperpolarised ^13C-pyruvate
# Description: R3230AC is a rat mammary adenocarcinoma that can be maintained in female Fischer 344 rats. To establish the animal tumour model, a frozen vial of R32030 cells containing RPMI 1640, 10% FBS and 10% DMSO was rapidly thawed in 37° C. Thereafter, the cell solution was transferred to FBS and increasing volumes of RPMI 1640 were added. Finally, the cell suspension was transferred to a 25 cm^2 growth flask and put into an incubator at 37° C., 5% CO2. Growth media were changed every other day. At the day of rat infection, removal of cells was carried out either by mechanical force or by means of trypsin. Cells were washed using phosphate buffer lacking calcium and magnesium. Trypsin (0.05% trypsin in 0.02% EDTA) was added for 2-5 min. Then, 5 ml FBS was added and the cells were transferred into a beaker containing RPMI 1640 with FCS and antibiotics (100 IU/ml penicillin, 100 IU/ml streptomycin and 2.5 μg/ml amphotericin B). The cell solution was centrifugated and the cell pellet was resuspended in 20 ml RPMI with FBS and antibiotics, centrifugation and resuspension was repeated. The cells were then aliquoted to vials containing 4×10^6 cells/ml RPMI 1640. To obtain donor tumours, female Fischer 344 rats (Charles River, 180-200 g) were anaesthetised and 0.3 ml of the cell suspension was subcutaneously injected in the inguinal region on both sides. 15 and 22 days later, pieces of tumour were prepared as described in F. A. Burgener et al., Invest Radiol 22/6 (1987), 472-478; S. Saini et al., J. Magn. Reson. 129/1 (1997), 35-43). Two incisions were made on the ventral abdomen of recipient female Fischer rats. A tumour piece was inserted into each pocket and the incisions were closed. Rats were brought to imaging 12-14 days after tumour engrafting.
# Weighed rats were anaesthetised using isoflurane (2-3%) and kept on a heated table to ensure a body temperature of about 37° C. A catheter was introduced into the tail vein and into the arteria carotis communis sinistra. The rats were transported to the MR machine and placed on a home-built pad that was heated to approx. 37° C. by means of circulating FC-104 Fluorinert. This liquid will not give rise to background signals in ^1H- and ^13C-MR imaging. Anaesthesia was continued by means of 1-2% isoflurane delivered via a long tube to an open-breathing system at a rate of 0.4 L/min. […]
# Based on the proton frequency found by the MR system the MR frequency for ^13C1-alanine was calculated according to the following equation: […]
# The frequency calculated positioned the MR signal arising from ^13C1-alanine on resonance with ^13C1-lactate on the left and ^13C1-pyruvate resonating on the right of ^13C1-alanine. […]
# [2] = Properties of the injected ^13C1-pyruvate composition at time of injection; format: physicochemical
# Excerpt: The frequency calculated positioned the MR signal arising from ^13C1-alanine on resonance with ^13C1-lactate on the left and ^13C1-pyruvate resonating on the right of ^13C1-alanine. An unlocalised MR spectroscopy sequence was run to ensure that the 13C-MR coil and the system MR frequency had been set up correctly. The ^13C-image location was positioned to cover the tumour (slice thickness 10 mm, in plane pixel size 5×5 mm^2). In the reconstruction phase, the image data was zero-filled to result in 2.5×2.5×10 mm^3 resolution. ^13C1-pyruvate in TRIS buffer (90 mM) was injected in a dose of 10 ml/kg during a period of 12 s with a minimum volume of 2 ml into the tail vein and 30 s after the start of the injection (i.e. 18 s after finishing the injection), the chemical shift ^13C-MR sequence was started.
# In total 30 different tumours were imaged in 18 rats. 1 rat failed and 3 tumours failed the biological criteria described in the preceding paragraph 5.5. […] The average polarisation of ^13C1-pyruvate at the time of injection was 21.2±2.9% (mean ±SD) and the pH was 8.08±0.14 (mean±SD).
# [3] = DNP polarisation, solid-state ^13C-NMR (enhanced vs thermal equilibrium signal); format: physicochemical; conditions: 20 mM Tris(8-carboxy-2,2,6,6-tetra(hydroxyethoxy)methyl-benzo[1,2-d:4,5-d′]bis(1,3)dithiole-4-yl)methyl sodium salt, 1.2 K, 3.35 T, 93.950 GHz
# Description: A 20 mM solution was prepared by dissolving Tris(8-carboxy-2,2,6,6-tetra(hydroxyethoxy)methyl-benzo [1,2-d:4,5-d′]-bis-(1,3)-dithiole-4-yl)methyl sodium salt in ^13C1-pyruvic acid (83.1 mg). The sample was mixed to homogeneity, placed in a sample cup and inserted in the DNP polariser. The sample was polarised under DNP conditions at 1.2 K in a 3.35 T magnetic field under irradiation with microwave (93.950 GHz). The ^13C-NMR signal from the sample was acquired using a Varian Inova-200 NMR spectrometer. The DNP enhancement was calculated from a measurement of the thermal equilibrium ^13C-NMR signal and the enhanced NMR signal. 16% ^13C polarisation was obtained.
# [4] = T1 relaxation of ^13C-pyruvate in human full blood; format: physicochemical; conditions: human full blood at 37° C.
# Excerpt: The amount of alanine, bicarbonate and lactate is dependent on the metabolic status of the tissue under investigation.
# [5] = DNP polarisation, dissolution and liquid-state ^13C-NMR assessment of polarisation; format: physicochemical; conditions: 1.2 K, 3.35 T
# Description: A 20 mM solution was prepared by dissolving 5.0 mg of the radical of Example 1 in ^13C1-pyruvic acid (164 μl). The sample was mixed to homogeneity and an aliquot of the solution (41 mg) was placed in a sample cup and inserted in the DNP polariser.
# The sample was polarised under DNP conditions at 1.2 K in a 3.35 T magnetic field under irradiation with microwave (93.950 GHz). After 2 hours the polarisation was stopped and the sample was dissolved using a dissolution device according to WO-A-02/37132 in an aqueous solution of sodium hydroxide and tris(hydroxymethyl)-aminomethane (TRIS) to provide a neutral solution of hyperpolarized sodium^13C1-pyruvate. The dissolved sample was rapidly analysed with ^13C-NMR to assess the polarisation and a 19.0 % ^13C polarisation was obtained.
# A 15 mM solution was prepared by dissolving the radical of Example 1 (209.1 mg) in a mixture of ^13C1-pyruvic acid (553 mg) and unlabelled pyruvic acid (10.505 g). […]
# The sample was polarised under DNP conditions at 1.2 K in a 3.35 T magnetic field under irradiation with microwave (93.950 GHz). […] The filtered solution was rapidly analysed with ^13C-NMR to assess the polarisation, 16.5% ^13C polarisation was obtained. The residual radical concentration was subsequently analysed with a UV spectrophotometer at 469 nm and was determined to be below the detection limit of 0.1 μM.
# [6] = rat, i.v. tail vein 10 ml/kg, imaging 30 s after start of injection
structure (smiles),measurement,setting,value
CC(=O)[13C](=O)O [^13C1-pyruvate],overall rate of success,"[1]; discrimination of tumour and healthy tissue, 26 out of 26 tumours",100%
same,"metabolic contrast in the tumour area, lactate signal",[1]; [6],24 out of 26
same,"metabolic contrast in the tumour area, lactate signal, alanine corrected",[1]; [6],26 out of 26
same,"metabolic contrast in the tumour area, lactate signal, pyruvate corrected",[1]; [6],26 out of 26
same,average polarisation at the time of injection,"[2]; mean ±SD, ^13C1-pyruvate in TRIS buffer (90 mM)",21.2±2.9%
same,pH,"[2]; mean±SD, injected composition",8.08±0.14
CC(=O)[13C](=O)O [^13C1-pyruvic acid],^13C polarisation,[3],16%
CC(=O)[13C](=O)O [^13C-pyruvate],T1 relaxation,[4],about 42 s
CC(=O)[13C](=O)[O-].[Na+] [sodium ^13C1-pyruvate],^13C polarisation,"[5]; 15 mM radical of Example 1 in ^13C1-pyruvic acid/unlabelled pyruvic acid, 4 hours, dissolved NaOH/TRIS, 0.5 M pyruvate, radical removed on C18 column",16.5%
same,^13C polarisation,"[5]; 20 mM radical of Example 1 in ^13C1-pyruvic acid, 93.950 GHz, 2 hours, dissolved in NaOH/TRIS, liquid ^13C-NMR",19.0%
